14 molecules from PubChem BioAssay (NCI) can be followed below.

Among the test systems are SNB-75 CNS; SN12C renal; HCT-116 colon; SNB-19 CNS; IGROV1 ovarian; SF-539 CNS; OVCAR-3 ovarian; NCI-H522 lung; SK-MEL-5 melanoma; SR leukemia.
What all share (experiment): inhibition of tumour cell growth, NCI panel, 48 h

Each structure is given as a SMILES string.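 Results reflect a 48-hour exposure of cells in 96-well plates to compound at five concentrations. GI50: concentration for 50% inhibition of growth. Definition used: TGI = concentration required for complete inhibition of growth.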 Where only a bound is given, the exact number is not on record here.

Consider `Nc1nc2c(ncn2C2OC(CO)C(O)C2N)c(=O)[nH]1` (configuration not stated), for which the TGI in the test with SNB-75 CNS, in the test on SN12C renal, in the test with HCT-116 colon, in the test with SNB-19 CNS, in the test with IGROV1 ovarian and with SF-539 CNS was greater than 100 µM each time. Also, the TGI in the test on OVCAR-3 ovarian and in the test on NCI-H522 lung was greater than 100 µM throughout.
Consider `COc1ccc(SC2c3cc(OC)c(OC)cc3Oc3nc(N)c(C#N)c(N)c32)cc1` (configuration not stated), for which the GI50 is 1.31 µM in the test on SNB-75 CNS; 1.5 µM in the test on SK-MEL-5 melanoma; 0.68 µM with HCT-116 colon; 1.32 µM with SNB-19 CNS; 0.762 µM with IGROV1 ovarian; 1.38 µM in the test with SF-539 CNS. The GI50 in the test with OVCAR-3 ovarian is 1.06 µM; in the test on NCI-H522 lung, 1.37 µM. Besides, the TGI was found to be 2.62 µM in the test on SNB-75 CNS; 2.82 µM in the test with SK-MEL-5 melanoma; 2.16 µM in the test with HCT-116 colon; 2.64 µM in the test on SNB-19 CNS; 2.37 µM with IGROV1 ovarian; 2.68 µM in the test with SF-539 CNS. Further, the TGI is 2.31 µM with OVCAR-3 ovarian and 2.77 µM in the test on NCI-H522 lung.
On to `Cc1cc(C)cc(-n2c3nc(=O)n(C)c(=O)c-3nc3ccccc32)c1`, for which the TGI in the test with SNB-75 CNS was greater than 100 µM; in the test with SK-MEL-5 melanoma, 30.8 µM; in the test on SN12C renal it was 76.4 µM; in the test on HCT-116 colon, 59.8 µM; with SNB-19 CNS, 50.9 µM; with IGROV1 ovarian it was 94.6 µM. Moreover, the TGI is 49.7 µM in the test on SF-539 CNS, 12.6 µM in the test with OVCAR-3 ovarian and 44.2 µM in the test with NCI-H522 lung.
For `O=NC1c2cccc3cccc(c23)C1N=O` (configuration not stated), the TGI is 31.3 µM in the test with SNB-75 CNS; 30.7 µM in the test with SK-MEL-5 melanoma; 3.81 µM in the test on HCT-116 colon; 43.4 µM in the test on SNB-19 CNS; 3.19 µM in the test with IGROV1 ovarian; 26.6 µM with SF-539 CNS. Moreover, the figures for the TGI in the test on OVCAR-3 ovarian and in the test on NCI-H522 lung were 9.6 µM and 9.14 µM, respectively.
Regarding `CCOC(=O)C(C)(C)Oc1ccc2c(=O)cc(-c3ccccc3)oc2c1`, the TGI with SNB-75 CNS was 57.6 µM; with SK-MEL-5 melanoma, 28.2 µM; in the test with SN12C renal, greater than 100 µM; with HCT-116 colon it was 31.1 µM; in the test on SNB-19 CNS it was 42.8 µM; with IGROV1 ovarian it was 78.4 µM. In addition, the figures for the TGI in the test with SF-539 CNS, in the test with OVCAR-3 ovarian and in the test on NCI-H522 lung were 38.2 µM, 39 µM and 28.5 µM, respectively.
Regarding `CC#C[C@@]1(O)CCCC[C@@H]1O`, the TGI in the test with SNB-75 CNS, in the test with SK-MEL-5 melanoma, in the test on SN12C renal, with HCT-116 colon, in the test with SNB-19 CNS and in the test with IGROV1 ovarian was greater than 100 µM each time. Also, the TGI in the test with SF-539 CNS, in the test with OVCAR-3 ovarian and with NCI-H522 lung was greater than 100 µM throughout.
For the molecule `O=[N+]([O-])c1cccc([N+](=O)[O-])c1S(=O)(=O)c1ccccc1`, the TGI stood at 28.3 µM in the test with SK-MEL-5 melanoma; 12.3 µM in the test with SN12C renal; 4.04 µM in the test with HCT-116 colon; 35.3 µM with SNB-19 CNS; 4.2 µM with IGROV1 ovarian; 30.2 µM in the test on SF-539 CNS. In the test with OVCAR-3 ovarian, this molecule registered a TGI of 5.5 µM.
Consider `C=C(CN1CCN(c2ccccc2OC)CC1)c1ccc(C(=O)Nc2ccccc2N)cc1`, for which the GI50 in the test on SK-MEL-5 melanoma was 2.58 µM; in the test with SN12C renal it was 0.0129 µM; in the test on HCT-116 colon, 6.02 µM; in the test with SNB-19 CNS, 12.1 µM; in the test with IGROV1 ovarian, 9.54 µM; with SF-539 CNS it was 2.18 µM. Besides, the GI50 in the test with OVCAR-3 ovarian is 5.64 µM. For the same molecule, the TGI is 11.3 µM with SK-MEL-5 melanoma; 0.0874 µM in the test with SN12C renal; 18.3 µM in the test with HCT-116 colon; greater than 50 µM in the test with SNB-19 CNS; 30.6 µM in the test with IGROV1 ovarian; 23.7 µM in the test on SF-539 CNS. Also, the TGI with OVCAR-3 ovarian was 19.7 µM.
As to `CC(CN=C(CC(=O)c1ccc(Br)cc1)c1ccccc1)N=C(CC(=O)c1ccc(Br)cc1)c1ccccc1` (configuration not stated), the GI50 in the test with SNB-75 CNS was greater than 100 µM; with SK-MEL-5 melanoma it was 2.18 µM; with SN12C renal, 64.1 µM; in the test on HCT-116 colon, 2.75 µM; in the test with SNB-19 CNS, greater than 100 µM; with IGROV1 ovarian it was 3.37 µM. In addition, the results for the GI50 in the test on SF-539 CNS and with NCI-H522 lung were greater than 100 µM and 5.53 µM, respectively. In addition, the TGI in the test on SNB-75 CNS is greater than 100 µM; with SK-MEL-5 melanoma, 8.9 µM; in the test with SN12C renal, greater than 100 µM; in the test on HCT-116 colon, greater than 100 µM; with SNB-19 CNS, greater than 100 µM; with IGROV1 ovarian it was greater than 100 µM. In addition, the TGI was greater than 100 µM in the test with SF-539 CNS, 14.7 µM with OVCAR-3 ovarian and greater than 100 µM with NCI-H522 lung.
In the case of `O=C(N/N=C(/c1nc2ccc(Cl)cc2[nH]c1=O)C(O)c1ccc(Cl)cc1Cl)c1ccncc1` (configuration not stated), the TGI with SNB-75 CNS, in the test with SK-MEL-5 melanoma, in the test on HCT-116 colon, in the test on SNB-19 CNS, in the test on IGROV1 ovarian and in the test on SF-539 CNS was greater than 100 µM each time. Also, the TGI in the test with OVCAR-3 ovarian was greater than 100 µM.
Take `COc1cc([C@@H]2c3cc4c(cc3[C@@H](NC(=O)c3ccc(N)cc3)C3COC(=O)[C@@H]32)OCO4)cc(OC)c1O` (some centres not stated): the TGI with SNB-75 CNS worked out at 6.56 µM; in the test with SK-MEL-5 melanoma, 21.6 µM; with SN12C renal, 4.54 µM; in the test with HCT-116 colon, 17 µM; in the test with SNB-19 CNS, 17.4 µM; in the test on IGROV1 ovarian it was 20.2 µM. Further, the TGI in the test on SF-539 CNS was found to be 3.87 µM; with OVCAR-3 ovarian it was 30.4 µM; with NCI-H522 lung, 9.23 µM.
Consider `COC(=O)/C=C/C(=O)C1C(C(=O)OC)C2(C(=O)OC)CCC1(C(=O)OC)N2` (configuration not stated), for which the TGI in the test with SR leukemia, in the test with SK-MEL-5 melanoma, with HCT-116 colon, in the test with SNB-19 CNS, with IGROV1 ovarian and in the test with SF-539 CNS was greater than 100 µM throughout. The same molecule displayed a TGI in the test with OVCAR-3 ovarian greater than 100 µM.
Take `Cc1cnc[nH]c1=O`: the TGI in the test with SNB-75 CNS, in the test on SK-MEL-5 melanoma, with SN12C renal, in the test with HCT-116 colon, with SNB-19 CNS and in the test with IGROV1 ovarian was greater than 100 µM throughout. In addition, the TGI in the test on OVCAR-3 ovarian and in the test with NCI-H522 lung was greater than 100 µM throughout.
For `CCOC(=O)C1N(S(=O)(=O)c2ccc(C)cc2)CCC12c1ccccc1N(C(C)=O)C2C(/C=C/C(=O)OC)=C/C(=O)OC` (configuration not stated), the TGI in the test on SNB-75 CNS, with SK-MEL-5 melanoma, in the test on SN12C renal, in the test with HCT-116 colon, with SNB-19 CNS and in the test with IGROV1 ovarian was greater than 100 µM throughout. Also, the TGI in the test with SF-539 CNS, in the test on OVCAR-3 ovarian and in the test on NCI-H522 lung was greater than 100 µM each time.
